Reference: article PMC3132048, “Treatment of experimental adjuvant arthritis with a novel folate receptor-targeted folic acid-aminopterin conjugate” (Arthritis Research & Therapy, 2011)
Marks after values point to notes of the source that are not given here.

Columns and labels:
[1] = target: T1, human FRβ (CHO-FRβ cells) (Homo sapiens, UniProt P14207); experiment: Relative affinity assay: displacement of [3H]FA from CHO-FRβ cells; type: binding; conditions: 37°C, competitor of [3H]FA, inverse molar ratio to displace 50%
T1 construct: host or cells: CHO-K1 cells
T1 sequence (P14207 17-255): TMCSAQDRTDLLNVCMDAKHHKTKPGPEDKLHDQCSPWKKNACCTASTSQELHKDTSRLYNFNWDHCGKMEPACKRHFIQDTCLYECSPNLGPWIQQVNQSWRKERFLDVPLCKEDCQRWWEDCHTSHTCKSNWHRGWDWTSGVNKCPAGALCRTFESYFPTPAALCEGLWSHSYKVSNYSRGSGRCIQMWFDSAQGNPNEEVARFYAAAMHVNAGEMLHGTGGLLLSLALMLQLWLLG
Protocol: (§1) The relative affinities of EC0746, AMT, and MTX were determined according to a previously established method except that both KB cells and CHO-FRβ cells were used as the sources of FR [33]. KB cells are a human cancer cell line known for elevated expression of FRα. CHO-FRβ cells were obtained from Manohar Ratnam, Department of Biochemistry and Cancer Biology, The University of Toledo (Toledo, OH, USA). This cell line was originally generated by stable integration and amplification of a human FRβ cDNA expression construct in CHO-K1 cells.

[2] = oral exposure, mice; cited from earlier work
rat TG-macs = experiment: Viability of thioglycollate-elicited peritoneal macrophages; type: cell-based; conditions: 72-hour incubation; no effect at concentrations as high as stated
Protocol: Female Lewis rats (175 to 200 g) were purchased from Harlan Sprague Dawley (Indianapolis, IN, USA) and were allowed to acclimate for 1 week. To obtain peritoneal macrophages, rats were dosed intraperitoneally with an aged thioglycollate (TG) medium (20 ml/kg) and euthanized 3 days later. The peritoneal cavity of the animals was lavaged with 60 ml ice-cold phosphate-buffered saline to collect peritoneal exudate. The TG-elicited macrophages in the peritoneal fluids were obtained after a red cell lysing step and a 2-hour adherence in folate-free RPMI 1640 medium (Mediatech, Manassas, VA, USA) containing 1% heat-activated fetal calf serum and antibiotics. The purity of the resulting macrophage population (herein referred to as rat TG-macs) was determined to be ~90% pure based on CD11b/c expression (data not shown). […] Unless otherwise specified, all cells were maintained in the folate-free RPMI 1640 medium containing 10% heat-activated fetal calf serum and antibiotics (FFRPMI) under a 5% CO2 atmosphere.
Unlike RAW264.7 cells, rat TG-macs display little proliferative activity ex vivo and therefore were used in our studies to represent inflammatory macrophages in a low proliferative state. […] LPS (5 μg/ml) and IFNγ (100 ng/ml) were then added to the treated cells 24 hours prior to the end of incubation to stimulate the release of cytokines/chemokines, which were then detected with a rat cytokine antibody array.

[3] = test system: adjuvant-induced arthritis; experiment: Rat adjuvant-induced arthritis (AIA) model; type: in vivo; conditions: for Body weight change (%): day 24 relative to day 10
Protocol: The rats were then inoculated intradermally (at the base of tail) with 0.5 mg heat-killed M. butyricum (BD Diagnostic Systems) in 100 μl light mineral oil (Sigma-Aldrich, St Louis, MO, USA). […] For each study, two or three rats from the same colony were not induced for arthritis and were used as healthy controls.
Unless noted otherwise, all drug treatments started on day 10 after arthritis induction and lasted for two consecutive weeks with biweekly (BIW, Mondays and Thursdays) or once-weekly (QW, Mondays) dosing regimens.
EC0746 was given subcutaneously (s.c.) in a dosing range of 25 to 1,000 nmol/kg (QW or BIW); MTX was given s.c. or orally at 250 nmol/kg (BIW) or 1,650 nmol/kg (QW); and etanercept (10 mg/kg) was given s.c. once every 3 days for a 12-day span. The QW MTX dosing regimen was to mimic MTX administration in humans, and this particular dose of 1,650 nmol/kg per week (that is, 0.75 mg/kg per week) was reportedly active as an intraperitoneal agent in the AIA model. To distinguish the anti-inflammatory mechanisms of EC0746 and MTX in vivo, a therapeutically irrelevant folate-containing competitor (EC0923, molecular weight 672) was used in 500-fold molar excess to block the activities of EC0746 and MTX at 250 nmol/kg (BIW).
Formalin-fixed hind paws were examined by a board-certified veterinary radiologist who had no knowledge of the study groups. Specific criteria were used to establish a numerical grade of severity for each radiographic change: increased soft tissue volume (0 to 4), narrowing or widening of joint spaces (0 to 5), subchondral erosion (0 to 3), periosteal reaction (0 to 4), osteolysis (0 to 4), subluxation (0 to 3), and degenerative joint changes (0 to 3). Scores are limited to the tarsus, and the maximum possible score per foot was 26 [39]. The histopathological analysis was also performed in a blind fashion by an independent contract laboratory (Bolder BioPATH Inc., Boulder, CO, USA). The arthritic ankles were scored on a scale of 0 to 5 for inflammation, bone resorption, pannus formation, and cartilage damage, with a maximal histology score of 20 per foot.

[4] = target: T2, FRα (FRα-expressing KB cells) (Homo sapiens, UniProt P15328); experiment: Relative affinity assay: displacement of [3H]FA from KB cells; type: binding; conditions: 37°C, competitor of [3H]FA, inverse molar ratio to displace 50%
T2 construct: both KB cells and CHO-FRβ cells were used as the sources of FR; endogenous in cells; host or cells: KB cells
T2 sequence (P15328 25-257): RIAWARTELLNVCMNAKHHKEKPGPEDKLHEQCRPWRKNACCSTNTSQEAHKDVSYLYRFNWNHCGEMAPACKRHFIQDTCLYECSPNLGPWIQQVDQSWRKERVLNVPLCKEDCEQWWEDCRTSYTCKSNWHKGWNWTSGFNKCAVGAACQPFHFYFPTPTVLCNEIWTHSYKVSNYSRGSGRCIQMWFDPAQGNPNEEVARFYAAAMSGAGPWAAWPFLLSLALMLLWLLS
Protocol: as §1

[5] = parameters: method as in PMID 10726889; conditions: rats, 0.1 mg/kg; cited from earlier work
[6] = target: T3, dihydrofolate reductase (DHFR) (Mus musculus, UniProt P00375); experiment: Dihydrofolate reductase inhibition assay in RAW264.7 whole cell lysates; type: cell-based, murine; conditions: FA alone 10 μM, 2-hour pulse, 22-hour chase
T3 construct: endogenous in cells; host or cells: RAW264.7 cells (FR-positive subclone of ATCC TIB71)
T3 sequence (P00375 1-187): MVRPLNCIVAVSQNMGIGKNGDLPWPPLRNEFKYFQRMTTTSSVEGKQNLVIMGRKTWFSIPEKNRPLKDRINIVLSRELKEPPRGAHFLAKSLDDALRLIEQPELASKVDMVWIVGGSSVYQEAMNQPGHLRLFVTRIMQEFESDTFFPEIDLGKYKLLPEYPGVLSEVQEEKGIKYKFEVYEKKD
Protocol: RAW264.7 cells growing in FFRPMI medium in 10 cm cell culture dishes (BD Falcon, Lincoln Park, NJ, USA) were treated with EC0746 (100 nM), EC0746 (100 nM) plus 100-fold molar excess of FA (10 μM), or FA alone (10 μM). After a 2-hour exposure, the drug-containing media were replaced and the cells were allowed to incubate further for 22 hours in fresh FFRPMI medium (referred in the text as a 22-hour chase). Meanwhile, AMT and MTX were kept at 100 nM for the entire 24-hour incubation period. All cells were subsequently lysed in the radioimmunoprecipitation assay lysis buffer, and DHFR activities in the whole cell lysates were determined using a commercial DHFR assay kit (Sigma-Aldrich). This spectrophotometric assay monitors the enzymatic conversion of dihydrofolic acid to tetrahydrofolic acid by DHFR and the disappearance of the co-factor nicotinamide adenine dinucleotide phosphate at 340 nm. The results were normalized to the values of the untreated control cells.

air-pouch inflammation = test system: air-pouch inflammation; parameters: method as in PMID 16170572; conditions: murine air-pouch inflammation; cited from earlier work
RAW264.7 cells = type: cell-based, murine; conditions: RAW264.7 macrophages, data not shown
Protocol: (§2) RAW264.7 cells in 96-well plates (3.5 × 10^4 cells/well) were treated with 10-fold serial dilutions of EC0746 (≤1 μM) in FFRPMI medium without and with 100-fold molar excess of FA. After a 2-hour exposure, the drug-containing media were replaced and the cells were allowed to incubate further for 70 hours (referred in the text as a 70-hour chase). In comparison, the cells were also treated continuously with AMT for 72 hours. Four hours prior to the end of incubation, LPS was added to the treated cells at a final concentration of 100 ng/ml. Then 100 μl culture supernatants were collected for TNFα analysis by ELISA. The cell viability was assessed by adding XTT to the remaining media for an additional 4 hours following the manufacturer's instructions. To evaluation of a cytostatic effect, RAW264.7 cells seeded at 1 × 10^6 cells/well in six-well plates were subjected to 2-hour exposure and a 70-hour chase with 0, 0.1, 10, and 1000 nM EC0746 without and with excess FA. At the end of the incubation (no LPS added), the surviving cells (that is, still viable cells) were recovered and redistributed in equal numbers in fresh medium for an additional 72 hours. The cell proliferation was again assessed by the XTT assay. All results were expressed as the percentage absorbance (minus background) relative to the untreated control cells.

arthritis = test system: arthritis; parameters: method as in PMID 16170572; conditions: murine arthritis; cited from earlier work
[7] = Plasma pharmacokinetics after single subcutaneous dose; type: in vivo, rat; conditions: female, Lewis, rat, plasma, sc, after single s.c. dose of unconjugated AMT 500 nmol/kg
Protocol: Female Lewis rats with jugular vein catheters (Harlan Sprague Dawley) were used to assess the plasma pharmacokinetics of EC0746 and unconjugated AMT. The animals were divided into two main groups, one given a single dose of EC0746 s.c. and the second a single dose of AMT s.c., both at 500 nmol/kg. Whole blood samples (300 μl) were collected from three animals per time point at the following time points: 1 minute, 10 minutes, 30 minutes, 1 hour, 2 hours, 3 hours, 4 hours, and 8 hours after injection. The blood samples were placed into anticoagulant tubes containing 1.7 mg/ml K3EDTA and 0.35 mg/ml N-maleoyl-β-alanine (0.35 mg/ml) in a 0.15% acetic acid solution. Plasma samples were obtained by centrifugation for 3 minutes at ~2,000 × g and stored at -80°C. The amounts of EC0746 and AMT in the plasma and the two primary metabolites of EC0746 (AMT and AMT hydrazide) were determined by liquid chromatography/mass spectrometry/mass spectrometry.

[8] = test system: TNFα production in RAW264.7 cells; experiment: LPS-stimulated TNFα production (ELISA); type: cell-based, murine; conditions: RAW264.7 macrophages, data not shown
Protocol: as §2

[9] = Preliminary short-term toxicity / MTD in folate-deficient healthy rats; type: in vivo, rat; conditions: rat, in vivo, sc; healthy rats on folate-deficient diet, four s.c. doses in 2 weeks; read-out: Maximum tolerated dose (MTD)
Protocol: The short-term toxicity and MTD of EC0746 and AMT were evaluated in healthy rats following the standard BIW subcutaneous dosing regimen used for efficacy studies. Further, these animals were put on a folate-deficient diet for ~20 days before treatment to match the folate deficiency status of AIA rats used for therapy. The folate-deficient but nonarthritic animals were thus given increasing doses of EC0746 and AMT for two consecutive weeks on a BIW basis. […] Standard hematologic and blood chemistry parameters were examined as needed along with histopathology.

[10] = s.c., 1,650 nmol/kg once weekly
[11] = s.c., 125 μmol/kg biweekly, alone
[12] = s.c., 10 mg/kg on days 10, 13, 16, 19, 22

Compound: CN(Cc1cnc2nc(N)nc(N)c2n1)c1ccc(C(=O)N[C@@H](CCC(=O)O)C(=O)O)cc1 [MTX, methotrexate, reference compound]
- Relative affinity value (FA = 1) [1]: 0.005
- Acute 50% lethal dose [2]: 89 mg/kg
- Concentration affecting TG-macs viability (rat TG-macs): > 10 µM
- Decrease in summed histology score ([3]; oral, 250 nmol/kg biweekly): 73%
- Reduction in dorsal to ventral paw thickness ([3]; oral, 250 nmol/kg biweekly): 63%
- Weight loss due to disease progression ([3]; oral, 1,650 nmol/kg (0.75 mg/kg) once weekly): ~ 10%
- Splenomegaly (percentage increase in spleen weight relative to healthy rats) ([3]; p.o., 250 nmol/kg biweekly from day 10): 42 ± 17%
- Inhibition in paw edema (%) ([3]; p.o., 250 nmol/kg biweekly from day 10, paw weight day 24): 70 ± 5%
- Body weight change (%) ([3]; p.o., 250 nmol/kg biweekly): -14 ± 2%
- Inhibition in paw edema (%) ([3]; p.o., 1,650 nmol/kg once weekly, calculated based on arthritis scores on day 24): 47 ± 10^f %
- Body weight change (%) ([3]; p.o., 1,650 nmol/kg once weekly): -10 ± 2%
- Splenomegaly (percentage increase in spleen weight relative to healthy rats) ([3]; s.c., 250 nmol/kg biweekly from day 10): 24 ± 3%
- Inhibition in paw edema (%) ([3]; s.c., 250 nmol/kg biweekly from day 10, paw weight day 24): 78 ± 10%
- Anti-arthritic activity in presence of EC0923 competitor ([3]; s.c., 250 nmol/kg biweekly plus EC0923 125 μmol/kg, P > 0.05): not significantly blocked
- Body weight change (%) ([3]; s.c., 250 nmol/kg biweekly): -2 ± 4%
- Weight loss [3, 10]: ~ 7%
- Inhibition in paw edema (%) ([3]; s.c., 1,650 nmol/kg once weekly, calculated based on arthritis scores on day 24): 63 ± 13^f %
- Body weight change (%) [3, 10]: -7 ± 8%
- Relative affinity value (FA = 1) [4]: 0.018
- Oral bioavailability [5]: 21%

Compound: Nc1nc2ncc(CNc3ccc(C(=O)N[C@@H](CCC(=O)N[C@H](CC(=O)O)C(=O)N[C@H](CC(=O)O)C(=O)O)C(=O)O)cc3)nc2c(=O)[nH]1 [EC0923, pteroyl-γGlu-d-Asp-d-Asp, reference compound]
- Impact on development or severity of arthritis [3, 11]: did not have any impact
- Radiographic analysis of arthritic paws [3, 11]: significant joint erosions

Compound: Nc1nc(=O)c2nc(CNc3ccc(C(=O)N[C@@H](CCC(=O)O)C(=O)O)cc3)cnc2[nH]1 [FA, folic acid]
- Effect on DHFR activity of cells [6]: benign

Compound: Etanercept
- Splenomegaly (percentage increase in spleen weight relative to healthy rats) ([3]; s.c., 10 mg/kg every 3 days): 42 ± 7%
- Inhibition in paw edema (%) ([3]; s.c., 10 mg/kg every 3 days, calculated based on arthritis scores on day 24): 46 ± 9^f %
- Body weight change (%) ([3]; s.c., 10 mg/kg every 3 days): -15 ± 2%
- Decrease in summed histology score [3, 12]: 43%
- Reduction in bone resorption (histology) [3, 12]: 55%
- Reduction in dorsal to ventral paw thickness [3, 12]: 40%
- Reduction in inflammation (histology) [3, 12]: 42%

Compound: Nc1nc(N)c2nc(CNc3ccc(C(=O)N[C@@H](CCC(=O)O)C(=O)O)cc3)cnc2n1 [AMT, aminopterin]
- Relative affinity value (FA = 1) [1]: 0.004
- Acute 50% lethal dose [2]: 3 mg/kg
- Concentration affecting TG-macs viability (rat TG-macs): > 10 µM
- Potency relative to MTX (air-pouch inflammation): ~ 40 fold
- Potency in inhibition of cell proliferation, AMT versus AMT hydrazide (RAW264.7 cells): equally potent
- Potency relative to MTX (arthritis): ~ 20 fold
- Tmax ([7]; 500 nmol/kg, read-out: Time to maximum concentration (converted)): ~0.5 h
- AUC ([7]; read-out: Area under the curve (converted)): 1.02 µM·h
- half-life ([7]; read-out: Elimination half-life): ~2.33 h
- Cmax ([7]; read-out: Maximum concentration in plasma): 601 nM
- Tolerability in AIA rats ([3]; unmodified AMT mixed with FA (1:1), 500 nmol/kg s.c. biweekly, after one or two doses, severe anemia and gastrointestinal distress): all animals treated with the simple mixture had to be euthanized
- Relative affinity value (FA = 1) [4]: 0.004
- Potency in inhibition of LPS-stimulated TNFα production, AMT versus AMT hydrazide [8]: equally potent
- MTD at 2 weeks [9]: 0.05 µmol/kg
